Measurements from paper PMC8279406 (Journal of Medicinal Chemistry, 2021).

Columns and labels:
[1] = system: recombinant R8102 HSV-1 strain; experiment: Infection neutralization assay, 293T cells, R8102 HSV-1, β-galactosidase readout; assay type: cell-based; conditions: for effect on HSV-1 infection (in words): increasing concentrations, 1 h prior to infection and 90 min during attachment
From the text: The binding of HSV-1 gH/gL to either αvβ6 or αvβ8 results in the dissociation of gL from the heterodimer, which, in turn, can favor HSV entry into cells.[27] […] R1.302, a nectin1-neutralizing mAb, was used as a positive control. In the first set of experiments, 293T cells, expressing both the αvβ6 and αvβ8 integrins, were alternatively exposed to increasing concentrations of the integrin-binding peptides and R1.302 before and during the infection by the recombinant R8102 HSV-1 strain. This virion carries, indeed, a lacZ reporter gene under the control of the α27 promoter, whose expression analysis allows for readily quantifying the infectivity.[59] […] Remarkably, these preliminary results were in agreement with the known interchangeable and additive roles played by αvβ6 and αvβ8 integrins upon HSV-1 infection.[26]
Figure 3 Inhibition of HSV-1 infection. 293T cells were exposed to increasing concentrations of the indicated peptides for 1 h prior to infection and during virus attachment for another 90 min. Infection was induced using the recombinant R8102 HSV-1 strain and measured after 8 h as β-galactosidase activity, using o-nitrophenyl-D-galactopyranoside (ONPG) as a substrate. The assays were run in triplicate. Bars show standard deviation (SD).
The experiments were performed using 293T cells in 96-well plates with extracellular virions of R8102 at an input multiplicity of infection of 5 PFU/cell. Cells were exposed to increasing concentrations of the peptides for 1 h at 37 °C, and the viral inoculum was added in the presence of peptides for 90 min at 37 °C. After the removal of the inoculum and rinsing with DMEM containing 1% FBS, the cells were incubated without peptides for 8 h. The same protocol was followed for R1.302 mAb that was used as a positive control. The infection was quantified as β-Gal activity using o-nitrophenyl-D-galactopyranoside (ONPG) as a substrate.[86]

[2] = system: T1, integrin β6; experiment: Integrin internalization assay, surface integrin β6 by flow cytometry; assay type: cell-based, human; conditions: J cells with nectin1, αvβ6 and αvβ8, 700 μM, 1 h at 37 °C
T1 construct: expressed in transfected cells; host or cells: J cells (derivatives of BHK-TK2 hamster cells)
From the text: Therefore, another mechanism might be responsible for the activity of 6 on J cells expressing αvβ8 integrin alone as well as the higher activity of 6 than that of 1 in cells that express both αvβ6 and αvβ8.[38] Thus, we hypothesized that 6 can prevent HSV-1 entry into J cells expressing nectin1 and the αvβ8 integrin alone by inducing internalization of the integrin itself. To validate our hypothesis, J cells were transfected with nectin1 and the two integrins αvβ6 and αvβ8 in the above-described manner. Then, 48 h after transfection, the cells were incubated for 60 min at 37 °C with 1 or 6. The surface expression of integrin β6 and β8, in the presence or the absence of peptides, was then evaluated by flow cytometry using FAB4155A (mAbβ6) and FAB4775A (mAbβ8) monoclonal antibodies that recognize other integrin regions than the RGD-binding domain.
Figure 5 Integrin internalization assay. J cells were transfected with a low amount (75 ng of DNA/24 well) of nectin1 plus αvβ6 integrin (300 ng of DNA/24 well) and αvβ8 integrin (300 ng of DNA/24 well). Then, 48 h after transfection, the cells were exposed to 700 μM peptides for 1 h at 37 °C. […] Integrin and nectin1 surface expression levels were quantified as flow cytometry expression of the APC mean fluorescence intensity (MFI) of gated cells. […]

SMILES	effect on HSV-1 infection (in words) [1]	membrane expression of integrin β6 (in words) [2]	inhibition of HSV infection ([1]; 700 μM) [%]	maximum inhibition of HSV-1 infection ([1]; at 1000 μM) [%]
CN1C(=O)[C@H](C2CCCCC2)NC(=O)[C@H](CC(=O)O)NC(=O)CNC(=O)[C@H](CCCNC(=N)N)NC(=O)CC[C@H]1C(N)=O [compound 6, [Arg-Gly-Asp-Chg-(NMe)Glu]-CONH2]	able to inhibit HSV-1 infection in a dose-dependent manner	reduced	–	–
N=C(N)NCCC[C@@H]1NC(=O)CC[C@@H](C(N)=O)NC(=O)[C@H](C2CCCCC2)NC(=O)[C@H](CC(=O)O)NC(=O)CNC1=O [compound 1, [Arg-Gly-Asp-Chg-Glu]-CONH2]	able to inhibit HSV-1 infection in a dose-dependent manner	reduced	40	50
